From patent US8987287B2, “Spirocyclic morphinans and their use” (Purdue Pharma L.P., priority 2012, dated 2015)

Columns and labels:
κ opioid receptor = κ opioid receptor (Homo sapiens (Human), UniProt P41145); test: κ-opioid receptor [35S]GTPγS functional assay, U-2 OS cells; assay type: biochemical; conditions: for Emax: relative to U69,593, U-2 OS cells
Method: κ-Opioid Receptor Functional Assay Procedures: Functional [^35S]GTPγS binding assays were conducted as follows. κ opioid receptor membrane solution was prepared by sequentially adding final concentrations of 0.026 μg/μl κ membrane protein (in-house), 10 μg/mL saponin, 3 μM GDP and 0.20 nM [^35S]GTPγS to binding buffer (100 mM NaCl, 10 mM MgCl2, 20 mM HEPES, pH 7.4) on ice. The prepared membrane solution (190 μl/well) was transferred to 96-shallow well polypropylene plates containing 10 μl of 20× concentrated stock solutions of agonist prepared in DMSO. Plates were incubated for 30 min at a temperature of about 25° C. with shaking. Reactions were terminated by rapid filtration onto 96-well Unifilter GF/B filter plates (Perkin Elmer, Shelton, Conn.) using a 96-well tissue harvester (Packard) and followed by three filtration washes with 200 μl ice-cold binding buffer (10 mM NaH2PO4, 10 mM Na2HPO4, pH 7.4). Filter plates were subsequently dried at 50° C. for 2-3 hours. Fifty μl/well scintillation cocktail (Perkin Elmer, Shelton, Conn.) was added and plates were counted in a Packard Top-Count for 1 min/well.
κ-Opioid Receptor Functional Data: κ GTP EC50 is the concentration of a compound providing 50% of the maximal response for the compound at a κ receptor.
κ GTP Emax (%) is the maximal effect elicited by a compound relative to the effect elicited by U69,593.
(§1) The following TABLE 3 provides results on the activity response of certain Compounds of the Invention at the μ- and κ-opioid receptors determined as described above using U-2 OS cells.

μ-opioid receptor = μ-opioid receptor (Homo sapiens (Human), UniProt P35372); test: μ-opioid receptor [35S]GTPγS functional assay, U-2 OS cells; assay type: biochemical; conditions: for Emax: relative to DAMGO, U-2 OS cells
Method: μ-Opioid Receptor Functional Assay Procedures: [^35S]GTPγS functional assays were conducted using freshly thawed μ-receptor membranes prepared in-house from a cell line expressing recombinant μ opioid receptor in a HEK-293, CHO or U-2 OS cell background, or purchased from a commercial source (Perkin Elmer, Shelton, Conn.; or DiscovRx, Fremont, Calif.). Assay reactions were prepared by sequentially adding the following reagents to binding buffer (100 mM NaCl, 10 mM MgCl2, 20 mM HEPES, pH 7.4) on ice (final concentrations indicated): membrane protein (0.026 mg/mL), saponin ([…]), GDP ([…]) and [^35S]GTPγS (0.20 nM; Perkin Elmer, Shelton, Conn.). The prepared membrane solution (190 μl/well) was transferred to 96-shallow well polypropylene plates containing 10 μl of 20× concentrated stock solutions of the agonist [D-Ala^2, N-methyl-Phe^4 Gly-ol^5]-enkephalin (DAMGO) prepared in dimethyl sulfoxide (DMSO). Plates were incubated for 30 min at about 25° C. with shaking. Reactions were terminated by rapid filtration onto 96-well Unifilter GF/B filter plates (Perkin Elmer, Shelton, Conn.) using a 96-well tissue harvester (Perkin Elmer, Shelton, Conn.) followed by three filtration washes with 200 μl of ice-cold wash buffer (10 mM NaH2PO4, 10 mM Na2HPO4, pH 7.4). Filter plates were subsequently dried at 50° C. for 2-3 hours. BetaScint scintillation cocktail (Perkin Elmer, Shelton, Conn.) was added (50 μl/well) and plates were counted using a Packard Top-Count for 1 min/well. Data were analyzed using the sigmoidal dose-response curve fitting functions in GraphPad PRISM v. 3.0, or an in-house function for non-linear, sigmoidal dose-response curve-fitting.
μ-Opioid Receptor Functional Data: μ GTP EC50 is the concentration of a compound providing 50% of the maximal response for the compound at a μ-opioid receptor.
μ GTP Emax (%) is the maximal effect elicited by a compound relative to the effect elicited by DAMGO, a standard μ agonist. Generally, the μ GTP Emax (%) value measures the efficacy of a compound to treat or prevent pain or other Conditions.
as §1

SMILES | EC50 (κ opioid receptor) | Emax (κ opioid receptor) | EC50 (μ-opioid receptor) | Emax (μ-opioid receptor)
CN1CC[C@]23C[C@@]4(CC[C@@]2(O)[C@H]1Cc1ccc(O)cc13)C(=O)NC(=O)N4C [Compound 70, (4S,4b′R,8a′S,9′R)-3′,8a′-dihydroxy-3,11′-dimethyl-8′,8a′,9′,1′-tetrahydro-5′H,7′H-spiro[imidazolidine-4,6′-[9,4b](epiminoethano)phenantrene]-2,5-dione] | 0.322 ± 0.0281 µM | 118 ± 9.61% | 0.0234 ± 0.00203 µM | 99 ± 1.53%
O=C1NC(=O)[C@@]2(CC[C@@]3(O)[C@H]4Cc5ccc(O)cc5[C@@]3(CCN4CC3CC3)C2)N1CC(F)(F)F [Compound 64, (4S,4b′R,8a′S,9′R)-11′-(cyclopropylmethyl)-3′,8a′-dihydroxy-3-(2,2,2-trifluoroethyl)-8′,8a′,9′,10′-tetrahydro-5′H,7′H-spiro[imidazolidine-4,6′-[9,4b](epiminoethano)-phenantrene]-2,5-dione] | 0.0222 ± 0.00146 µM | 106 ± 2.85% | 0.00276 ± 0.0005 µM | 14 ± 0.58%
COc1ccc2c(c1)[C@]13CCN(CCC(C)C)[C@H](C2)[C@]1(O)CC[C@@]1(C3)NC(=O)NC1=O [Compound 22, (4bR,4′S,8aS,9R)-8a-hydroxy-11-isopentyl-3-methoxy-5,7,8,8a,9,10-hexahydrospiro[9,4b-(epiminoethano)phenanthrene-6,4′-imidazolidine]-2′,5′-dione] | > 20 µM | 91.3 ± 6.57% | 3.96 ± 1.41 µM | 46 ± 6%
CCN1C(=O)N[C@]2(CC[C@@]3(O)[C@H]4Cc5ccc(OC)cc5[C@@]3(CCN4CC)C2)C1=O [Compound 16, (4bR,4′S,8aS,9R)-1′,11-diethyl-8a-hydroxy-3-methoxy-5,7,8,8a,9,10-hexahydrospiro[9,4b-(epiminoethano)phenanthrene-6,4′-imidazolidine]-2′,5′-dione] | > 20 µM | 50 ± 1% | > 20 µM | 8.5%
O=C1NC(=O)[C@@]2(CC[C@@]3(O)[C@H]4Cc5ccc(O)cc5[C@@]3(CCN4CC(F)(F)F)C2)N1 [Compound 32, (4bR,4′S,8aS,9R)-3,8a-dihydroxy-11-(2,2,2-trifluoroethyl)-5,7,8,8a,9,10-hexahydrospiro[9,4b-(epiminoethano)phenanthrene-6,4′-imidazolidine]-2′,5′-dione] | 0.523 ± 0.18 µM | 104 ± 1.2% | > 20 µM | 1.5%
COc1ccc2c(c1)[C@]13CCN(CCCc4ccccc4)[C@H](C2)[C@]1(O)CC[C@@]1(C3)NC(=O)NC1=O [Compound 26, (4bR,4′S,8aS,9R)-8a-hydroxy-3-methoxy-11-(3-phenylpropyl)-5,7,8,8a,9,10-hexahydrospiro[9,4b-(epiminoethano)phenanthrene-6,4′-imidazolidine]-2′,5′-dione] | > 20 µM | 63 ± 8.72% | > 20 µM | 26.7 ± 11.7%
O=C1NC(=O)[C@@]2(CC[C@@]3(O)[C@H]4Cc5ccc(O)cc5[C@@]3(CCN4CC(F)F)C2)N1 [Compound 38, (4bR,4′S,8aS,9R)-11-(2,2-difluoroethyl)-3,8a-dihydroxy-5,7,8,8a,9,10-hexahydrospiro[9,4b-(epiminoethano)phenanthrene-6,4′-imidazolidine]-2′,5′-dione] | 0.441 ± 0.144 µM | 99 ± 3.51% | > 20 µM | 12 ± 1%
COc1ccc2c(c1)[C@]13CCN(CC(F)(F)F)[C@H](C2)[C@]1(O)CC[C@@]1(C3)NC(=O)NC1=O [Compound 13, (4bR,4′S,8aS,9R)-8a-hydroxy-3-methoxy-11-(2,2,2-trifluoroethyl)-5,7,8,8a,9,10-hexahydrospiro[9,4b-(epiminoethano)phenanthrene-6,4′-imidazolidine]-2′,5′-dione] | > 20 µM | 65 ± 8.74% | > 20 µM | 10%
C=C(C)CCN1CC[C@]23C[C@]4(CC[C@@]2(O)[C@H]1Cc1ccc(O)cc13)NC(=O)NC4=O [Compound 37, (4bR,4′S,8aS,9R)-3,8a-dihydroxy-11-(3-methylbut-3-en-1-yl)-5,7,8,8a,9,10-hexahydrospiro[9,4b-(epiminoethano)phenanthrene-6,4′-imidazolidine]-2′,5′-dione] | 0.0335 ± 0.00967 µM | 101 ± 1.76% | 0.0187 ± 0.00253 µM | 92 ± 5%
CCN1C(=O)N(Cc2ccc(O)cc2)C(=O)[C@@]12CC[C@@]1(O)[C@H]3Cc4ccc(O)cc4[C@@]1(CCN3CC1CC1)C2 [Compound 48, (4S,4b′R,8a′S,9′R)-11′-(cyclopropylmethyl)-3-ethyl-3′,8a′-dihydroxy-1-(4-hydroxybenzyl)-8′,8a′,9′,10′-tetrahydro-5′H,7′H-spiro[imidazolidin-4,6′-[9,4b](epiminoethano)-phenantrene]-2,5-dione] | 0.00261 ± 0.0003 µM | 105 ± 1.2% | 0.00082 ± 9.3e-05 µM | 12 ± 0.58%
COc1ccc2c(c1)[C@]13CCN(CC4CCCCC4)[C@H](C2)[C@]1(O)CC[C@@]1(C3)NC(=O)NC1=O [Compound 23, (4bR,4′S,8aS,9R)-11-(cyclohexylmethyl)-8a-hydroxy-3-methoxy-5,7,8,8a,9,10-hexahydrospiro[9,4b-(epiminoethano)phenanthrene-6,4′-imidazolidine]-2′,5′-dione] | > 20 µM | 98 ± 8.89% | > 20 µM | 11%
COc1ccc2c(c1)[C@]13CCN(CC(F)F)[C@H](C2)[C@]1(O)CC[C@@]1(C3)NC(=O)NC1=O [Compound 19, (4bR,4′S,8aS,9R)-11-(2,2-difluoroethyl)-8a-hydroxy-3-methoxy-5,7,8,8a,9,10-hexahydrospiro[9,4b-(epiminoethano)phenanthrene-6,4′-imidazolidine]-2′,5′-dione] | > 20 µM | 52% | > 20 µM | 1%
CCN1C(=O)N[C@]2(CC[C@@]3(O)[C@H]4Cc5ccc(O)cc5[C@@]3(CCN4CC3CC3)C2)C1=O [Compound 45, (4S,4b′R,8a′S,9′R)-11′-(cyclopropylmethyl)-1-ethyl-3′,8a′-dihydroxy-8′,8a′,9′,10′-tetrahydro-5′H,7′H-spiro[imidazolidine-4,6′-[9,4b](epiminoethano)phenantrene]-2,5-dione] | 0.00434 ± 0.00074 µM | 96.3 ± 1.33% | 0.00647 ± 0.00069 µM | 45.9 ± 3.04%
COc1ccc2c(c1)[C@]13CCN(CC=C(C)C)[C@H](C2)[C@]1(O)CC[C@@]1(C3)NC(=O)NC1=O [Compound 21, (4bR,4′S,8aS,9R)-8a-hydroxy-3-methoxy-11-(3-methylbut-2-en-1-yl)-5,7,8,8a,9,10-hexahydrospiro[9,4b-(epiminoethano)phenanthrene-6,4′-imidazolidine]-2′,5′-dione] | > 20 µM | -1% | > 20 µM | 5.5%
O=C1NC(=O)[C@@]2(CC[C@@]3(O)[C@H]4Cc5ccc(O)cc5[C@@]3(CCN4CCF)C2)N1 [Compound 30] | 0.0382 ± 0.012 µM | 99.7 ± 1.67% | 0.102 ± 0.0302 µM | 56.7 ± 4.33%
CN1CC[C@]23C[C@@]4(CC[C@@]2(O)[C@H]1Cc1ccc(O)cc13)C(=O)NC(=O)N4CC1CC1 [Compound 66, (4bR,4′S,8aS,9R)-3′-(cyclopropylmethyl)-3,8a-dihydroxy-11-methyl-5,7,8,8a,9,10-hexahydrospiro[9,4b-(epiminoethano)phenanthren-6,4′-imidazolidine]-2′,5′-dione] | 4.65 ± 0.302 µM | 103 ± 7.09% | 0.076 ± 0.00231 µM | 98 ± 1.15%
